This is an account of results in patent publication US20250099426A1, “Indolium Compounds for Treating Cancer” (Emory University, priority 2022, published 2025).

“Also recorded” adds a separate entry of the source.

The subject of one series is pAkt. The series can be described thus: Western blotting of treated LM36R cells, pAkt. The class given is cell-based. The following applies: 0.1-5 μM Indolium 1, 24 hours. Here is the method:
(§1) LM36R cells were grown in six T75 flasks. Upon reaching 70% confluence, cell media was replaced with media with concentrations of 0, 0.1, 0.5, 1, 2.5, and 5 μM Indolium 1. After 24 hours, cells were lysed in RIPA buffer (25 mM Tris-HCl, 150 mM NaCl, 1% NP-40, 1% sodium deoxycholate, 0.1% sodium dodecyl sulfate, pH 7.6) supplemented with HALT™ protease phosphatase inhibitor cocktails and 0.5 M EDTA solution. Cell lysates incubated on ice for 30 minutes, and then centrifuged at 16,000×g at 4° C. for 20 minutes. Protein concentration was determined using the Pierce BCA Protein Assay Kit™ and then normalized. NuPage™ LDS Sample Buffer (4×) and beta-mercaptoethanol were added to the samples, which were subsequently boiled. Sample protein (40 μg) of were loaded into each well of NuPAGE™ 4-12% Bis-Tris precast gels in MOPS buffer against Precision Plus™ Protein Dual Color Standards. Proteins were transferred onto polyvinylidene difluoride membrane using Transblot Turbo™ system. Membrane was blocked for 1 hour at room temperature in 5% non-fat dry milk in 0.1% Tween-Tris-Buffered Saline and probed with Rb (#PA5-27215) pMAPK (9101S), pAkt (#4060S), and beta-tubulin (#2146S) antibodies at 1:1000 dilutions in 5% bovine serum albumin at 4° C. overnight. […] Antibody signal was detected using SuperSignal™ West Pico chemiluminescence substrate with Medical X-Ray Film and digitally scanned.
(In western blotting, separated proteins are transferred to a membrane and probed.)

On the set-up of series [1]: species or system mice. Particulars: mouse, in vivo. The method, then:
The ability to inhibit the growth of vemurafenib resistant melanoma in vivo is unique.
(§2) The xenograft model was developed. A LM36R cell suspension in growth medium was inoculated at 1×10^6 cells/mouse in the right flank of athymic Nu/Nu nude male mice (n=5 per group). MPIB was prepared by dissolving 3.75 mg into 1 mL of ethanol 7. This solution (100 μL) was then diluted to the final concentration in 1 mL of 20% soy-fat Intralipid™ prior to each injection and vortexed vigorously. Vehicle control (ethanol in Intralipid) or MPIB was administered intraperitoneally three times a week at 3 mg/kg/week. MPIB treatment was initiated on the second day after the tumor cell injection, and the tumor volume as well as the weight of the animals were recorded weekly thereafter. Animals were sacrificed and tumors were harvested after tumor volumes reached experimental endpoint as determined by IACUC protocol.

The test system of another series is Nkx3.2. The series can be described thus: Immunohistochemistry of in vivo LM36R tumor model, Nkx3.2. Details: species or system mice. Particulars: treated LM36R tumor versus control. Here is the method: (§3) Tumor samples were resected and embedded in formalin, processed, and stained. Formalin-fixed and paraffin-embedded tissue sections from each group were cut to a 5-μm thickness and air-dried. Processing was performed using Ventana DISCOVERY™ Ultra automated immunohistochemistry stainer. Slides were deparaffinized with EZ-Prep (#05279771001) and then were antigen retrieved for 64 minutes with CC1 reagent (#950-500). Rabbit anti-Eph receptor A3 (EphA3) antibody (ab126261) diluted at 1:50, Rabbit anti-Nkx3.2 (#PA5-21108 diluted at 1:500) and mouse anti-Rbl antibody (554136) diluted at 1:100 were applied and incubated for 40 minutes. For the first two stains, DISCOVERY™ OmniMap anti-Rb HRP was applied and incubated for 12 minutes, and the detection was completed in combination with DISCOVERY™ ChromoMap DAB kit for anti-EphA3 antibody and DISCOVERY™ Red kit for anti-Nkx3.2 anti-body, as per manufacturer recommendations. For the Rbl stain, DISCOVERY™ OmniMap anti-mouse HRP was applied and incubated for 12 minutes, and the detection was completed in combination with DISCOVERY™ ChromoMap DAB kit. Slides were counterstained with hematoxylin for 8 minutes. Slides were then dehydrated, cover-slipped, and evaluated by light microscopy. Whole imaging was performed.

The test system of series [2] is Rb. The series can be described thus: Immunohistochemistry of in vivo LM36R tumor model, Rb. Details: species or system mice. The following applies: treated LM36R tumor tissue versus control tissue. The method, then:
as §3

In series [3] the test system is LM36R, a vemurafenib-resistant melanoma cell line. As to the kind of experiment: In vivo LM36R xenograft model, tumor volume. Details: species or system athymic Nu/Nu nude male mice. The following applies: LM36R 1×10^6 cells/mouse, IP three times a week, 3 mg/kg/week, 4 weeks, N=5/group, p-value=0.03 at week 4. The method, then: Mice were inoculated with LM36R, a vemurafenib-resistant melanoma cell line, at 1×10^6 cells/mouse. Mice were then treated with Indolium via IP administration three times a week at a concentration of 3 mg/kg/week. Tumor growth was compared to control vehicle (sterile water). […] (N=5/group, p-value=0.03) at week 4.
In order to investigate Indolium 1 activity against LM36R, vemurafenib-resistant melanoma cell line, in vivo, 10 mice were inoculated at 1×10^6 cells/mouse. Mice were then treated with indolium 1 via IP administration three times a week at a concentration of 3 mg/kg/week. […] (FIG. 2).
as §2, with “Vehicle control (ethanol in Intralipid) or MPIB was administered intraperitoneally three times a week at 3 mg/kg/week.” left out

The subject of a further series is LM36R cells. As to the kind of experiment: Proliferation assay / cell viability (AlamarBlue). The following applies: Indolium 1 1 μM, 24 hours. The class given is cell-based. The method, then:
Lanes: 1) Control 2) Indolium 1 (1 μM) 3) MEK Inhibitor U0126 (10 μM) 4) Akt Inhibitor II (10 μM) 5) Indolium 1 (1 μM)+MEK Inhibitor U0126 (10 μM) 6) Indolium 1+Akt Inhibitor II (10 μM). *=Statistically lower cell viability compared to control (p<0.05). **=Statistically lower cell viability compared to control and statistically higher cell viability than Indolium 1 treatment (lane 2) alone. Inhibition of MAPK and Akt reverses cell death caused by Indolium 1.
The induction of MAPK and Akt seem to contribute to reduction in tumor size observed in mice treated with Indolium 1. In a cell viability assay, cells were treated with Indolium 1, MEK inhibitor (inhibiting the MAPK signaling pathway directly upstream of MAPK), and Akt inhibitor. Cells were also treated with a combination of Indolium 1 and each inhibitor. […]
A cell proliferation assay was used to study the effect of Indolium 1 in vitro. […] After 4 hours, the plate was read following manufacturer's instructions and the data was processed using Softmax™ Pro software (Molecular Devices). An unpaired two-tailed Student's t-test was performed to determine the significant difference between the control and each treatment group, along with between the Indolium 1 only versus Indolium 1 plus MEK/Akt inhibitor, with significance determined at p<0.05.

Series [4] has as its system Rb. As to the kind of experiment: Western blotting of treated LM36R cells, Rb. The class given is cell-based. The following applies: 0.1-5 μM Indolium 1, 24 hours. The method, then: as §1
Series [5] relates to EphA3. As to the kind of experiment: Immunohistochemistry of in vivo LM36R tumor model, EphA3. Also noted: species or system mice. The following applies: treated LM36R tumor tissue versus controls. The method, then:
as §3

A further series has as its system pMAPK. As to the kind of experiment: Western blotting of treated LM36R cells, pMAPK. Particulars: 0.1-5 μM Indolium 1, 24 hours. The class given is cell-based. The method, then: as §1
Series [6] concerns EphA3. The series can be described thus: ATAC-seq of LM36R tumors, chromatin accessibility. The format is in vivo. Particulars: treated versus vehicle LM36R tumors in mice. The method, then: To gain insights into the mechanisms by which Indolium 1 caused decrease in LM36R tumor volume, we analyzed possible changes in chromatin structure in the tumor cells using ATAC-seq. […] To further explore the effects that Indolium 1 has on cells which could have led to tumor size reduction, LM36R cells were treated with varying concentrations of Indolium 1. […] Beta-tubulin was used to confirm even protein concentrations in each sample.
Experiments reported herein indicate that small molecule, Indolium 1 has activity against vemurafenib resistant BRAF mutant melanoma. Vehicle versus Indolium treated tumors in mice were analyzed for potential biomarkers and for insight into the mechanism of Indolium 1 in vivo. […] EphA3 is a receptor tyrosine kinase which binds ligands ephrinA5 and […]. […] First, inactivating mutations in EphA3 are often found in high grade malignancies. Second, activation of wild type EphA3 causes downregulation of Akt, which has previously been implicated in melanoma progression. […] Finally, a novel antibody based therapeutic directed against EphA3, and therapies that induce EphA3 could sensitize melanoma to anit-EphA3 antibodies.

On to “3-(bis(4-(diethylamino)phenyl) methylene)-1-methyl-2-phenyl-3H-indol-1-ium [Indolium 1]”, for which the “pAkt levels (Western blot)” value in the series with pAkt is given as “induction”. Also, the tolerability result in series [1] is on record as “well tolerated”. Also, the Nkx3.2 immunohistochemical staining result with Nkx3.2 is on record as “upregulated Nkx3.2 expression”. In the series on Rb [2], the Rb immunohistochemical staining result was “less Rb compared with control tissue”. Moreover, the “tumor volume versus control” value in series [3] is “potent in vivo activity against LM36R; also recorded: significant reduction of tumor volume; also recorded: reduced tumor volume over 4 weeks”. In addition, the relative cell viability result in the series with LM36R cells is on record as “cell death”. Also, the “levels of Rb (Western blot)” value in the series on Rb [4] is “decreased with increasing concentrations”. Also, the EphA3 immunohistochemical staining entry in the series with EphA3 [5] is recorded as “more positivity for EPHA3 compared to controls”. In addition, the “pMAPK levels (Western blot)” value in the series on pMAPK is reported as “induction of phosphorylated MAP kinase”. For the same substance, the “EphA3 chromatin accessibility (ATAC-seq)” value in the series on EphA3 [6] is reported as “one of the most upregulated genes in terms of chromatin accessibility”.
